Results taken from article PMC12621175, “Scaffold Fusion and SAR Transfer with a Chemical Language Model Generates Novel Liver X Receptor Modulators” (Journal of Medicinal Chemistry, 2025).
pIC50: −log10 of the molar value. “Also recorded” adds a separate entry of the source.

Tests used:
[1] = test system: HepG2 cells; experiment: resazurin-based proliferation assay, HepG2; assay type: cell-based
Description: (§1) HepG2 or HEK293T cells were seeded in 96-well plates (4 × 10^4 cells per well). […] After 4, 14, and 24 h, the medium was aspirated, and the cells were incubated with 100 μM resazurin solution in Opti-MEM (prepared from a 0.15 mg/mL resazurin stock in DPBS) for 60 min. The metabolic activity was assessed by conversion of resazurin to resorufin, which was quantified by measuring absorbance at 570 nm and a reference wavelength of 600 nm. The cell count was calculated from a calibration curve with 0–10^5 cells per well in steps of 2 × 10^4.

[2] = test system: ABCA1; experiment: qPCR of LXR-regulated mRNA expression in HepG2: ABCA1; assay type: cell-based, human; conditions: HepG2, 24 h
[3] = test system: HEK293T cells; experiment: resazurin-based proliferation assay, HEK293T; assay type: cell-based
Description: as §1

[4] = test system: HepG2 cells; experiment: lipid accumulation assay (Oil Red O staining); assay type: cell-based; conditions: 72 h
Description: HepG2 cells were seeded in collagen-coated 96-well plates at a density of 10^4 cells per well and incubated for 24 h. For the lipolytic mode, the cells were pretreated for additional 24 h with 66.7 μM oleic acid and 33.3 μM palmitic acid in culture medium with 1% bovine serum albumin (BSA). The cells were then treated with DMSO (0.1%) alone or in combination with test compounds in the culture medium. After 72 h, the cells were washed with PBS (2 × 50 μL) and fixed with 10% formalin solution (50 μL) for 15 min. After removal of the fixative, the cells were washed with H2O (2 × 50 μL), followed by 50 μL of 60% iPrOH and incubated with 50 μL Oil Red O solution (0.3% in 60% iPrOH) for 10 min to stain neutral lipids. The cells were washed quickly with 50 μL of 60% iPrOH and 2 × 50 μL of PBS. Microscopic images were taken using a 40x objective on a BZ-X810 microscope (KEYENCE, Frankfurt, Germany). Images were analyzed using ImageJ software (v1.54) according to a literature method.

[5] = test system: APOE; experiment: qPCR of LXR-regulated mRNA expression in HepG2: APOE; assay type: cell-based, human; conditions: HepG2, 24 h
[6] = test system: SREBP1c; experiment: qPCR of LXR-regulated mRNA expression in HepG2: SREBP1c; assay type: cell-based, human; conditions: HepG2, 24 h
[7] = molecular target: T1, LXRβ (Homo sapiens, UniProt P55055); experiment: Gal4-LXRβ hybrid reporter gene assay; assay type: cell-based
T1 construct: coding for the hinge region, and LBD of the canonical isoform of the respective nuclear receptor; expressed in transfected cells; host or cells: HEK293T
T1 sequence (P55055 222-460 limits assumed): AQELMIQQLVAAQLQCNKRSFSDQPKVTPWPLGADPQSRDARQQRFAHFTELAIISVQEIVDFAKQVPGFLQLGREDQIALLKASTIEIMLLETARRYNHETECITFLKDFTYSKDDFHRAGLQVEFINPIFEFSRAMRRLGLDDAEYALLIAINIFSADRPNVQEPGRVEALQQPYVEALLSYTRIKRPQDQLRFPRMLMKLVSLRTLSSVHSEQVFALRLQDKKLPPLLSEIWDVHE
Description: The LXR-responsive reporter ABCA1-pGL3 was used for the full-length reporter gene assay.
The day before transfection, HEK293T cells were seeded in 96-well plates (4 × 10^4 cells/well). Before transfection, the medium was changed to Opti-MEM without any supplements. Transient transfection was carried out using Lipofectamine LTX reagent (Invitrogen) according to the manufacturer’s protocol with (a) pFR-Luc (Stratagene), pRL-SV40 (Promega), and the corresponding Gal4-fusion nuclear receptor plasmid or (b) the LXR-responsive reporter ABCA1-pGL3 and pRL-SV40 (Promega). […] Each concentration was tested in duplicate, and each experiment was repeated in at least three biologically independent repeats. […] Luminescence was measured with a Spark 10 M luminometer (Tecan Deutschland GmbH). Normalization of transfection efficiency and cell growth was done by division of firefly luciferase data by renilla luciferase data multiplied by 1000, resulting in relative light units (RLU). Fold activation was obtained by dividing the mean RLU of the tested compound at a respective concentration by the mean RLU of the untreated 0.1% DMSO control. […] Separate control experiments to exclude nonspecific reporter gene activation or VP16-mediated effects were performed following the same procedure in the absence of a nuclear receptor expression plasmid (pFR-Luc, pRL-SV40, and pECE-SV40-Gal4-VP16 only).

Row | Compound | antiproliferative effect ([1]; 10 μM) | ABCA1 mRNA expression ([2]; 3 μM) | antiproliferative effect ([3]; 10 μM) | lipid accumulation (lipogenesis) ([4]; 10 μM, compared to T0901317 10 μM) | APOE mRNA expression ([5]; 3 μM) | SREBP1c mRNA expression ([6]; 3 μM) | EC50 ([7]; classification agonist, read-out: LXRb pEC50/pIC50 (converted)) [µM] | antiproliferative effect ([1]; 30 μM) | ABCA1 mRNA expression ([2]; 30 μM) | antiproliferative effect ([3]; 30 μM) | effect on T0901317-induced lipogenesis ([4]; 30 μM with T0901317 10 μM) | lipid accumulation (lipogenesis) ([4]; 30 μM) | APOE mRNA expression ([5]; 30 μM) | SREBP1c mRNA expression ([6]; 30 μM) | mrna remaining at 30 µM ([6]; Homo sapiens, 30 μM) [%] | pIC50 [7]
1 | CCN(C(=O)c1ccccc1)c1ccc(C(O)(C(F)(F)F)C(F)(F)F)cc1 [Compound 1, N-Ethyl-N-(4-[1,1,1,3,3,3-hexafluoro-2-hydroxypropan-2-yl]phenyl)benzamide] | did not inhibit the proliferation | induced | did not inhibit the proliferation | formation of less lipids in HepG2 cells than the structurally related full agonist T0901317; also recorded: induced lipogenesis after 72 h less efficiently | induced | induced | 0.589 |  |  |  |  |  |  |  |  | 
2 | CS(=O)(=O)c1cccc(-c2ccc(CN(Cc3cccc(C(F)(F)F)c3Cl)CC(c3ccccc3)c3ccccc3)cc2)c1 [Compound 3, N-(2-Chloro-3-[trifluoromethyl]benzyl)-N-([3′-{methylsulfonyl}-{1,1′-biphenyl}-4-yl]methyl)-2,2-diphenylethan-1-amine] |  |  |  |  |  |  |  | did not inhibit the proliferation | did not significantly alter the expression; also recorded: only a weak impact | did not inhibit the proliferation | significantly attenuated T0901317-induced lipogenesis; also recorded: mitigated T090-induced steatosis | did not induce lipid accumulation; also recorded: did not stimulate lipid accumulation | did not significantly alter the expression; also recorded: only a weak impact | repressed SREBP1c expression; also recorded: robustly suppressed SREBP1c | 10 | 5.53
